Active and inactive are the calls of the source. The rule behind the calls is not given here.

We go through two compounds from ChEMBL document CHEMBL5705903, “A DNA Hypomethylation Signature Predicts Antitumor Activity of LSD1 Inhibitors in SCLC” (Cancer Cell, 2015).

For one series, the target named is Adenosine receptor A2a (Homo sapiens, UniProt P29274). In words: Agonist activity at Adenosine A2a receptor (unknown origin). It is filed as functional.
Series [1] concerns the target 5-hydroxytryptamine receptor 1B (Homo sapiens, UniProt P28222). In words: Antagonist activity at 5-HT1B (unknown origin). It is filed as functional.
Series [2] has as its target 5-hydroxytryptamine receptor 2A (Homo sapiens, UniProt P28223). Put plainly: Antagonist activity at 5-HT2A receptor (unknown origin). It is filed as functional.
For series [3], the target named is Serotonin 3 (5-HT3) receptor. Put plainly: Inhibition of 5-HT3 receptor (unknown origin). It is filed as protein-complex assay, Homo sapiens.
A short description of series [4]: Inhibition of AChR receptor (unknown origin). Also on record: species or system Homo sapiens.
For series [5], the target named is Phosphatidylinositol 4,5-bisphosphate 3-kinase catalytic subunit gamma isoform (Homo sapiens, UniProt P48736). Put plainly: Inhibition of PI3Kgamma (unknown origin).
Sequence of Phosphatidylinositol 4,5-bisphosphate 3-kinase catalytic subunit gamma isoform (P48736 whole entry, canonical isoform): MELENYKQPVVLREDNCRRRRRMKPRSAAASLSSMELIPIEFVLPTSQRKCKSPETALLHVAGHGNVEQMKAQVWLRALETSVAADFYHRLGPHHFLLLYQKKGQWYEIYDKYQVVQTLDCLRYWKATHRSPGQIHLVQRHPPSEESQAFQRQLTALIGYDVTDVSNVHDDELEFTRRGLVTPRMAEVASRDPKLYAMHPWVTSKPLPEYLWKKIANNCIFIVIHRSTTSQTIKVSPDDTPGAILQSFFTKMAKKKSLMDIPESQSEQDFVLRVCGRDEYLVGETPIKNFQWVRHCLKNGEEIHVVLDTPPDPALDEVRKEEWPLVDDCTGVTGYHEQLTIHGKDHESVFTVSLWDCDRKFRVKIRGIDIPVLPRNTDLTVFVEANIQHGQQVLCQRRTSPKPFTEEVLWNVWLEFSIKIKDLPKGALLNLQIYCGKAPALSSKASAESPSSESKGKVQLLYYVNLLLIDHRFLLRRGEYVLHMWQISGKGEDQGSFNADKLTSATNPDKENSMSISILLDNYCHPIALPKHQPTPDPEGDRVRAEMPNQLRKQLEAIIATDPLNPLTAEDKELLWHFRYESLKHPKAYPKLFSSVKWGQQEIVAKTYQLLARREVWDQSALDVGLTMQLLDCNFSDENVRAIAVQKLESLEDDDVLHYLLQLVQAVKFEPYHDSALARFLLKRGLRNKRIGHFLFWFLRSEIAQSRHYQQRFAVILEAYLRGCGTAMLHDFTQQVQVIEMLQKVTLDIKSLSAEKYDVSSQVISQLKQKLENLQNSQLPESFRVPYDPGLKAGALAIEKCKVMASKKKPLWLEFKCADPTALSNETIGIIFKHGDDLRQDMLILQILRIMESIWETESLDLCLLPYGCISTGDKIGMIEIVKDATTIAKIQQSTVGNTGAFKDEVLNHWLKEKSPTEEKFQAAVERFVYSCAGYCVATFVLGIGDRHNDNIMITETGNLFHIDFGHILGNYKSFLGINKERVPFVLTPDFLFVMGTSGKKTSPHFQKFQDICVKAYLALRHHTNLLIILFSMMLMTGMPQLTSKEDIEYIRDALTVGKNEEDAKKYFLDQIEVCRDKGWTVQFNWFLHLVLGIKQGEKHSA
For series [6], the target named is Sodium-dependent noradrenaline transporter (Homo sapiens, UniProt P23975). Put plainly: Inhibition of NET (unknown origin).
Sequence of Sodium-dependent noradrenaline transporter (P23975 whole entry): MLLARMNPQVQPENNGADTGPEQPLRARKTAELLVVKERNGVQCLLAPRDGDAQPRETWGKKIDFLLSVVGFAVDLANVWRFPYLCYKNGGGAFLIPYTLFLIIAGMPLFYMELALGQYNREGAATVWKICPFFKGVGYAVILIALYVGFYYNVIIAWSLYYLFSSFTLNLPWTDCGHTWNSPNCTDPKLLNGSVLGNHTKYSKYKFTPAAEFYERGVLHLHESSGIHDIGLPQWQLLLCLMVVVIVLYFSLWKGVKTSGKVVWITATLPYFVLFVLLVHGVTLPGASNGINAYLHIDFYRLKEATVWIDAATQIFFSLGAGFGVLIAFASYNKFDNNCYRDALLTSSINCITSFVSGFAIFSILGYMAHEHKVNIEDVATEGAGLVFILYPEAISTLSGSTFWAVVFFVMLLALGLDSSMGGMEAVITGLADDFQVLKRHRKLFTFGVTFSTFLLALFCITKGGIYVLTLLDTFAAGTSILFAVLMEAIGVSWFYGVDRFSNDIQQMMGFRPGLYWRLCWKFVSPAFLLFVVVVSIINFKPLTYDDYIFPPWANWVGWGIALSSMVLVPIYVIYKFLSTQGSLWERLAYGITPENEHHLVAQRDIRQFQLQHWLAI
Series [7] concerns the target Sodium-dependent serotonin transporter (Homo sapiens, UniProt P31645). In words: Inhibition of SERT (unknown origin).
The target of series [8] is Solute carrier organic anion transporter family member 1B1 (Homo sapiens, UniProt Q9Y6L6). In words: Inhibition of OATP1B1 (unknown origin).
Sequence of Solute carrier organic anion transporter family member 1B1 (Q9Y6L6 whole entry): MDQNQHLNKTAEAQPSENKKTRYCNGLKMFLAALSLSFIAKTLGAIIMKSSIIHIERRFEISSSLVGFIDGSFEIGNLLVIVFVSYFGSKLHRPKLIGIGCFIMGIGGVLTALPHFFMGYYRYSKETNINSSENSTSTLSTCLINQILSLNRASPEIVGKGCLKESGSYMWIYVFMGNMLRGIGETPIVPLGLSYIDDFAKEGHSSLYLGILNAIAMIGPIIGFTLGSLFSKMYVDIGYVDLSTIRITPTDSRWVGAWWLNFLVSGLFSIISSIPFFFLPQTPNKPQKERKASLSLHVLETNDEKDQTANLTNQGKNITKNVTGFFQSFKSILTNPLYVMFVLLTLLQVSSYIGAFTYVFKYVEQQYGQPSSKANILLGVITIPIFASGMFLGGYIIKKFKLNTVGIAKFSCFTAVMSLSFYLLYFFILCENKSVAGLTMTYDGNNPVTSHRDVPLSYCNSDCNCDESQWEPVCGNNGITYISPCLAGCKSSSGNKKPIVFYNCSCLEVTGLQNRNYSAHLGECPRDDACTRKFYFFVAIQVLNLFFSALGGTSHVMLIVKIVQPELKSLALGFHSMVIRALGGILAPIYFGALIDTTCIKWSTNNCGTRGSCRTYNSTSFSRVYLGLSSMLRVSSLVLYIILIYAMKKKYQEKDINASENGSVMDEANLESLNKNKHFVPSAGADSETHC
Series [9] in a line: Half life in mouse at 5.5 mg/kg, ip by HPLC/MS/MS analysis. It is filed as ADME, organism-based. The note with it: in vivo.
Series [10] can be described thus: AUC (0 to last) in mouse blood at 5 mg/kg, po by HPLC/MS/MS analysis. It is filed as ADME, organism-based.
Series [11] in a line: Cmax in mouse tumor at 5 mg/kg, po by HPLC/MS/MS analysis. It is filed as ADME, organism-based, Neoplasm.
Series [12] is described as follows: Dose normalized AUC (0 to last) in mouse tumor at 5 mg/kg, po by HPLC/MS/MS analysis. As to conditions: in vivo. It is filed as ADME, organism-based, Neoplasm.
The nature of series [13]: Effect on cleaved PARP level in human NCI-H1417 cells assessed as relative expression at 1000 nM measured after 10 days by Western blot analysis (reference value: 0.19). It is filed as functional. As to conditions: time 10 day.
Series [14] is described as follows: Effect on cleaved PARP level in human NCI-H1417 cells assessed as fold change at 1000 nM measured after 10 days by Western blot analysis (reference value: 1.00). It is filed as functional. The note with it: time 10 day.
Series [15] can be described thus: Effect on cleaved PARP level in human NCI-H1417 cells assessed as fold change at 10 nM measured after 14 days by Western blot analysis (reference value: 1.00). It is filed as functional. The note with it: time 14 day.
Series [16] in a line: Effect on cleaved PARP level in human NCI-H526 cells assessed as fold change at 100 nM measured after 10 days by Western blot analysis (reference value: 1.00). The note with it: time 10 day. It is filed as functional.
Series [17] in a line: Effect on cleaved PARP level in human NCI-H526 cells assessed as fold change at 1000 nM measured after 10 days by Western blot analysis (reference value: 1.00). It is filed as functional. As to conditions: time 10 day.
The nature of series [18]: Effect on cleaved PARP level in human NCI-H526 cells assessed as fold change at 1000 nM measured after 14 days by Western blot analysis (reference value: 1.00). As to conditions: time 14 day. It is filed as functional.
Series [19] can be described thus: Effect on cleaved PARP level in human NCI-H524 cells assessed as fold change at 1000 nM measured after 10 days by Western blot analysis (reference value: 1.00). It is filed as functional. The note with it: time 10 day.
Series [20] in a line: Effect on cleaved PARP level in human COLO-668 cells assessed as relative expression at 10 nM measured after 10 days by Western blot analysis (reference value: 1.07). It is filed as functional. The note with it: time 10 day.
A short description of series [21]: Effect on cleaved PARP level in human COLO-668 cells assessed as relative expression at 10 nM measured after 14 days by Western blot analysis (reference value: 3.50). As to conditions: time 14 day. It is filed as functional.
The nature of series [22]: Effect on cleaved PARP level in human COLO-668 cells assessed as fold change at 1000 nM measured after 10 days by Western blot analysis (reference value: 1.00). It is filed as functional. The note with it: time 10 day.
Series [23] can be described thus: Effect on cleaved PARP level in human NCI-H69 cells assessed as relative expression at 1000 nM measured after 7 days by Western blot analysis (reference value: 0.02). It is filed as functional. The note with it: time 7 day.
The nature of series [24]: Effect on cleaved PARP level in human NCI-H69 cells assessed as relative expression at 1000 nM measured after 14 days by Western blot analysis (reference value: 0.03). As to conditions: time 14 day. It is filed as functional.
Series [25] can be described thus: Effect on cleaved PARP level in human NCI-H889 cells assessed as relative expression at 10 nM measured after 14 days by Western blot analysis (reference value: 0.94). It is filed as functional. As to conditions: time 14 day.
Series [26] in a line: Effect on cleaved PARP level in human NCI-H889 cells assessed as relative expression at 100 nM measured after 14 days by Western blot analysis (reference value: 0.94). It is filed as functional. The note with it: time 14 day.
Series [27] in a line: Effect on cleaved PARP level in human NCI-H2171 cells assessed as relative expression at 10 nM measured after 10 days by Western blot analysis (reference value: 0.02). It is filed as functional. As to conditions: time 10 day.
The nature of series [28]: Toxicity in rat assessed as morbidity measured for 28 days. As to conditions: in vivo, 672 h, time 28 day.
Series [29] in a line: Toxicity in dog assessed as declining clinical condition measured for 28 days. Also on record: species or system Canis lupus familiaris. The note with it: in vivo, 672 h, time 28 day.
The subject of series [30] is NCI-H2171. In words: Antitumor activity against human NCI-H2171 cells xenografted in nude mouse assessed as mean tumor volume at […] mg/kg, po administered daily measured twice weekly (reference value: 1553 +/- 339 mm3). It is filed as functional. The note with it: 1.25 mg/kg.
The test system of series [31] is NCI-H2171. Put plainly: Antitumor activity against human NCI-H2171 cells xenografted in nude mouse assessed as tumor growth inhibition at […] mg/kg, po administered daily measured twice weekly relative to control. It is filed as functional. The note with it: read-out: TGI.
In another series the test system is NCI-H510A. Put plainly: Effect on NSE gene expression in human NCI-H510A cells at 1 uM measured after 4 to 7 days by qRT-PCR analysis. As to conditions: time 4-7 day. It is filed as functional, cell-based.
For series [32], the system named is NCI-H526. In words: Effect on genomic redistribution of LSD1 to new sites in human NCI-H526 cells at 1 uM. It is filed as functional, cell-based.
Series [33] deals with NCI-H526. In words: In vivo inhibition of LSD1 in human NCI-H526 cells xenografted in nude mouse assessed as change in TSPAN8 gene expression measured after 24 hrs post single administration by qRT-PCR analysis. It is filed as functional, organism-based. The note with it: dose 0.06-135 mg/kg.
The subject of series [34] is NCI-H526. In words: In vivo inhibition of LSD1 in human NCI-H526 cells xenografted in nude mouse assessed as change in ODZ2 gene expression measured after 24 hrs post single administration by qRT-PCR analysis. As to conditions: dose 0.06-135 mg/kg. It is filed as functional, organism-based.
Series [35] relates to NCI-H526. Put plainly: In vivo inhibition of LSD1 in human NCI-H526 cells xenografted in nude mouse assessed as change in ANXA6 gene expression measured after 24 hrs post single administration by qRT-PCR analysis. As to conditions: dose 0.06-135 mg/kg. It is filed as functional, organism-based.
The test system of series [36] is NCI-H526. Put plainly: In vivo inhibition of LSD1 in human NCI-H526 cells xenografted in nude mouse assessed as change in ZEB1 gene expression administrated daily for 5 days by qRT-PCR analysis. It is filed as functional, organism-based. The note with it: dose 0.02-135 mg/kg, time 5.0 day.
Series [37] can be described thus: Antitumor activity against human PDX L48 cells xenografted in mouse assessed as tumor growth inhibition at 1.5 mg/kg administered daily measured for 16 days relative to control. It is filed as functional. As to conditions: PDX LX48, 384 h, time 16 day, read-out: TGI.

Sequence of Adenosine receptor A2a (P29274 whole entry): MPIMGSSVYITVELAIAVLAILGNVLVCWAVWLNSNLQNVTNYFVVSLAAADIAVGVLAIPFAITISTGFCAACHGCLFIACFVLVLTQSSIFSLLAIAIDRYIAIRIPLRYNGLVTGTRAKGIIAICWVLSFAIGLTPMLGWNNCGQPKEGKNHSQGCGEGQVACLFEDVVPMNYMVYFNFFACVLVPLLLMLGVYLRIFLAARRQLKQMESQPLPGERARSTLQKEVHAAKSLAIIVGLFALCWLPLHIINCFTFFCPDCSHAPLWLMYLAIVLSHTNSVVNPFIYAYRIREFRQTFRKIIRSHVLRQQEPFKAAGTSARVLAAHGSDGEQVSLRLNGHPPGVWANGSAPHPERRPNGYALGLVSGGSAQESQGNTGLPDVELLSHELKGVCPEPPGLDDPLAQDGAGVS
Sequence of Sodium-dependent serotonin transporter (P31645 whole entry): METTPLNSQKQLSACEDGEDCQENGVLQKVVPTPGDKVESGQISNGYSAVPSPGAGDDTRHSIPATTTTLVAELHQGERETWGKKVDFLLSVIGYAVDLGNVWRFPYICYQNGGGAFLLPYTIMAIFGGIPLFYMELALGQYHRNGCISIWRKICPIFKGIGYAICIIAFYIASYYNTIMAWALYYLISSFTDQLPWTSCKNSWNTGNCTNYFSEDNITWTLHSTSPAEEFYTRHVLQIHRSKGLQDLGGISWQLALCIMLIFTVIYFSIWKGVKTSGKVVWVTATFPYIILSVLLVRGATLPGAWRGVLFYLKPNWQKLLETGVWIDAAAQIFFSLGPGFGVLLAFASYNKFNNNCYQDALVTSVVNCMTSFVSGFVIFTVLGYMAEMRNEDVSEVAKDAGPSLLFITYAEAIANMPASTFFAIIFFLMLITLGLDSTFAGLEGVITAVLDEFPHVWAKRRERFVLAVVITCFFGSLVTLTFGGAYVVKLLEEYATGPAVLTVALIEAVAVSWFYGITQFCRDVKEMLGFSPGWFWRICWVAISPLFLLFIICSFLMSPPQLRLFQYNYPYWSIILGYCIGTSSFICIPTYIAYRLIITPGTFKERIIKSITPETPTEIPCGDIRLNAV
Sequence of 5-hydroxytryptamine receptor 1B (P28222 whole entry): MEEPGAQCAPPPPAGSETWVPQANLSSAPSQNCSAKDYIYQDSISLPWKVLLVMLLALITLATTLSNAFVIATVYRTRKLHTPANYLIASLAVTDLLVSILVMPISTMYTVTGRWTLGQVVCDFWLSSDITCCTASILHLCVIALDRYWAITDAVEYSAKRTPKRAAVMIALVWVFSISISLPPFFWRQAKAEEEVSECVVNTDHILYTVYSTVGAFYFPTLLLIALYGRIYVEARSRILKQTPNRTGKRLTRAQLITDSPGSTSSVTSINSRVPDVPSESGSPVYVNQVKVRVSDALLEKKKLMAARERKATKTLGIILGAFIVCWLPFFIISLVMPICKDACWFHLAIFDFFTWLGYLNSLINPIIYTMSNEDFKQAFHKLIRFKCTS
Sequence of 5-hydroxytryptamine receptor 2A (P28223 whole entry): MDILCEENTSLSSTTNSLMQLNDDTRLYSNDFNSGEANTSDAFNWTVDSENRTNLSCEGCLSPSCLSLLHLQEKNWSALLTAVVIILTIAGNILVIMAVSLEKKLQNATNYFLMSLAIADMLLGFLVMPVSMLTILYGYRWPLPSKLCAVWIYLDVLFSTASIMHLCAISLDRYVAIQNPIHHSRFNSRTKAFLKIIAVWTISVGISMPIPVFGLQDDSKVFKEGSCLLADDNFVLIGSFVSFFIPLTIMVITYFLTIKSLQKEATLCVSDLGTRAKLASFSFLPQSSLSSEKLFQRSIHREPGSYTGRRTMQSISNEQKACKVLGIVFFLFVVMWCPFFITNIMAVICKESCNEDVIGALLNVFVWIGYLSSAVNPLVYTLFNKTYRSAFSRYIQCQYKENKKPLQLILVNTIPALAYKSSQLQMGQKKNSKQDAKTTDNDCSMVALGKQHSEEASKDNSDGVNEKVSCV

For the compound `c1ccc([C@@H]2C[C@H]2NC2CCNCC2)cc1`, the EC50 is above 100 µM on Adenosine receptor A2a, above 100 µM in series [1] and 16 µM in series [2]. Further, the IC50 is above 30 µM in [3]; above 50 µM in series [4]; above 32 µM in [5]; 25 µM in series [6]; 2 µM in series [7]; above 30 µM in [8]. In series [9], the half-life was 3.6 h.

Consider `O=C(O)c1ccc(CN2CCC(CN[C@@H]3C[C@H]3c3ccccc3)CC2)cc1` [GSK2879552], for which the values for the EC50 (at Adenosine receptor A2a; in [1]; in [2]) were above 32 µM, above 30 µM and 20 µM, respectively. The IC50 in [3] was above 30 µM; in series [4], above 50 µM; in [5] it was above 32 µM; in series [6], above 100 µM; in series [7], 80 µM; in [8], above 30 µM. In series [10], this compound displayed an AUC(0-t) of 853 ng·h/mL. Besides, the maximum concentration (Cmax) in series [11] is 355 ng/mL. In [12], the AUClast/dose was determined as 464 ng·h/mL/mg/kg. Also, the Activity in [13] is 0.4; in [20], 0.81; in [21] it was 1.45; in [23], 0.04; in series [24], 0.17; in series [25] it was 1.73. For the same compound, the Activity is on record as 2.36 in [26]; 0.02 in [27]; “Toxic” in [28]; “Toxic” in [29]; 1055 mm3 with NCI-H2171 [30]. Besides, the “fold change (FC)” value in series [14] turned out to be 2.12; in [15], 0.82; in series [16], 1.16; in series [17], 1.43; in series [18], 1.37; in [19], 0.83. For the same compound, the “fold change (FC)” value in [22] is 0.59. For the same compound, the inhibition in vivo at 1.25 mg/kg in the series with NCI-H2171 [31] amounted to 37%. The result in the series with NCI-H510A and in the series on NCI-H526 [32] was inactive. The inhibition result with NCI-H526 [33], with NCI-H526 [34], in the series with NCI-H526 [35] and in the series on NCI-H526 [36] was “Dose-Dependent Effect” each time. In addition, in [37], the inhibition in vivo at 1.5 mg/kg was 74%.
